melting point: 205 to 206 °C
Structure (SMILES): Cc1c([N+](=O)[O-])cc2[nH]c(=O)c(=O)[nH]c2c1-c1nnc(N)o1 [Example 1, 5-(5-Amino-[1,3,4]oxadiazol-2-yl)-6-methyl-7-nitro-1,4-dihydro-quinoxaline-2,3-dione]
